Laboratory results as given in ChEMBL document CHEMBL1201862, “PubChem BioAssay data set” (2004).
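Assay format: 96-well plates, 48-hour exposure. Abbreviation: GI50, concentration required for 50% inhibition of growth.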 Active and inactive are the calls of the source. Rule as the data show it: active = GI50 up to about 1.1 µM and inactive = higher.

Tests used:
Test in all cases: DTP human tumour cell line panel, 48 h
786-0 = system: 786-0
A498 = system: A498
A549 = system: A549
ACHN = system: ACHN
BT-549 = system: BT-549
CAKI-1 = system: CAKI-1
COLO 205 = system: COLO 205
DU-145 = system: DU-145
EKVX = system: EKVX
HCC 2998 = system: HCC 2998
HCT-116 = system: HCT-116
HCT-15 = system: HCT-15
HL-60 = system: HL-60
HOP-62 = system: HOP-62
HOP-92 = system: HOP-92
HT-29 = system: HT-29
IGROV-1 = system: IGROV-1
KM12 = system: KM12
LOX IMVI = system: LOX IMVI
M14 = system: M14
MCF7 = system: MCF7
MDA-MB-231 = system: MDA-MB-231
MDA-MB-435 = system: MDA-MB-435
MDA-N = system: MDA-N
NCI-H226 = system: NCI-H226
NCI-H23 = system: NCI-H23
NCI-H460 = system: NCI-H460
NCI/ADR-RES = system: NCI/ADR-RES
OVCAR-3 = system: OVCAR-3
OVCAR-4 = system: OVCAR-4
OVCAR-5 = system: OVCAR-5
OVCAR-8 = system: OVCAR-8
RXF 393 = system: RXF 393
SF-268 = system: SF-268
SF-295 = system: SF-295
SF-539 = system: SF-539
SK-MEL-28 = system: SK-MEL-28
SK-MEL-2 = system: SK-MEL-2
SK-MEL-5 = system: SK-MEL-5
SK-OV-3 = system: SK-OV-3
SN12C = system: SN12C
SNB-19 = system: SNB-19
SNB-75 = system: SNB-75
SW-620 = system: SW-620
T47D = system: T47D
TK-10 = system: TK-10
U-251 = system: U-251
UACC-257 = system: UACC-257
UO-31 = system: UO-31
CCRF-CEM = system: CCRF-CEM
Hs-578T = system: Hs-578T
K562 = system: K562
MOLT-4 = system: MOLT-4
Malme-3M = system: Malme-3M
NCI-H522 = system: NCI-H522
PC-3 = system: PC-3
RPMI-8226 = system: RPMI-8226
SR = system: SR
UACC-62 = system: UACC-62

Measured: GI50

N#C/C(=C/NC(N)=S)C(N)=O
> 100 µM: HCT-15
inactive: 786-0 > 100 µM | A498 > 100 µM | A549 > 100 µM | ACHN > 100 µM | BT-549 > 100 µM | CAKI-1 > 100 µM | COLO 205 > 100 µM | DU-145 > 100 µM | EKVX > 100 µM | HCC 2998 > 100 µM | HCT-116 > 100 µM | HL-60 > 100 µM | HOP-62 > 100 µM | HOP-92 > 100 µM | HT-29 > 100 µM | IGROV-1 > 100 µM | KM12 > 100 µM | LOX IMVI > 100 µM | M14 > 100 µM | MCF7 > 100 µM | MDA-MB-231 > 100 µM | MDA-MB-435 > 100 µM | MDA-N > 100 µM | NCI-H226 > 100 µM | NCI-H23 > 100 µM | NCI-H460 > 100 µM | NCI/ADR-RES > 100 µM | OVCAR-3 > 100 µM | OVCAR-4 > 100 µM | OVCAR-5 > 100 µM | OVCAR-8 > 100 µM | RXF 393 > 100 µM | SF-268 > 100 µM | SF-295 > 100 µM | SF-539 > 100 µM | SK-MEL-28 > 100 µM | SK-MEL-2 > 100 µM | SK-MEL-5 > 100 µM | SK-OV-3 > 100 µM | SN12C > 100 µM | SNB-19 > 100 µM | SNB-75 > 100 µM | SW-620 > 100 µM | T47D > 100 µM | TK-10 > 100 µM | U-251 > 100 µM | UACC-257 > 100 µM | UO-31 > 100 µM

Clc1ncc(Cl)c(Cl)n1
2.24 µM: HCT-15
active: HL-60 0.474 µM | K562 0.832 µM | RPMI-8226 0.455 µM
inactive: 786-0 1.99 µM | A498 19.1 µM | A549 12.1 µM | ACHN 1.92 µM | CAKI-1 1.86 µM | CCRF-CEM 2.47 µM | COLO 205 1.72 µM | DU-145 11.8 µM | EKVX 13.3 µM | HCC 2998 4.21 µM | HCT-116 2.82 µM | HOP-62 16.5 µM | HOP-92 1.81 µM | HT-29 1.36 µM | Hs-578T 2.72 µM | IGROV-1 9.66 µM | KM12 9.14 µM | LOX IMVI 1.17 µM | M14 3.24 µM | MCF7 1.59 µM | MDA-MB-231 3.03 µM | MDA-MB-435 2.65 µM | MDA-N 3.37 µM | MOLT-4 1.5 µM | Malme-3M 1.88 µM | NCI-H226 4.85 µM | NCI-H23 15.5 µM | NCI-H460 5.27 µM | NCI-H522 1.48 µM | NCI/ADR-RES 3.95 µM | OVCAR-3 6.5 µM | OVCAR-4 2.08 µM | OVCAR-5 19.8 µM | OVCAR-8 3.86 µM | PC-3 2.45 µM | RXF 393 2.05 µM | SF-268 9.12 µM | SF-295 13.2 µM | SF-539 8.97 µM | SK-MEL-28 3.42 µM | SK-MEL-2 2.12 µM | SK-MEL-5 5.05 µM | SK-OV-3 4.7 µM | SN12C 1.73 µM | SNB-19 3.3 µM | SNB-75 2.84 µM | SR 1.61 µM | SW-620 1.38 µM | T47D 2.36 µM | TK-10 9.55 µM | U-251 4.22 µM | UACC-257 5.22 µM | UACC-62 1.91 µM | UO-31 3.17 µM

COC(=O)C1=C(O)C(C(=O)OC)[C@]2(O)[C@H](C(=O)OC)[C@H]1C[C@@H](c1ccc([N+](=O)[O-])cc1)[C@H]2C(=O)OC (stereo partly drawn)
inactive: 786-0 14.9 µM | A549 21.3 µM | ACHN 18.1 µM | BT-549 15.9 µM | CAKI-1 28.6 µM | CCRF-CEM 18 µM | COLO 205 25 µM | DU-145 34.7 µM | EKVX 21.5 µM | HCT-116 14.7 µM | HL-60 14.3 µM | HOP-62 34.6 µM | HT-29 22.6 µM | IGROV-1 12.8 µM | K562 10.2 µM | KM12 28 µM | LOX IMVI 13 µM | M14 15.7 µM | MDA-MB-231 24.6 µM | MDA-MB-435 11 µM | MDA-N 7.91 µM | MOLT-4 8.09 µM | Malme-3M 3.46 µM | NCI-H226 24.9 µM | NCI-H23 13.2 µM | NCI-H460 26.4 µM | NCI-H522 2.46 µM | NCI/ADR-RES 16.4 µM | OVCAR-3 25.1 µM | OVCAR-4 34.8 µM | OVCAR-5 25.2 µM | OVCAR-8 17.6 µM | PC-3 13.9 µM | RXF 393 14.7 µM | SF-268 16.9 µM | SF-295 28.5 µM | SF-539 30.5 µM | SK-MEL-28 16.2 µM | SK-MEL-2 18.4 µM | SK-MEL-5 15.3 µM | SK-OV-3 27.8 µM | SN12C 18.1 µM | SNB-19 19 µM | SNB-75 42.3 µM | SW-620 16.6 µM | T47D 38.2 µM | TK-10 74.1 µM | U-251 11.5 µM | UACC-257 34.1 µM | UACC-62 12.4 µM
12.7 µM: HCT-15
